Results on two compounds are retold here after patent US20230218604A1, “PPARy AGONIST FOR TREATMENT OF PROGRESSIVE [sequence] PALSY” (Coherus Biosciences, Inc., priority 2022, published 2023).

Data set [1] relates to adiponectin. Briefly: 24-week randomized, double-blind, placebo-controlled study in type 2 diabetes: serum adiponectin levels. As to conditions: for Mean Adiponectin, Week 24 / Mean Change in adiponectin from baseline (Week 0) to Week 24 / Mean Adiponectin, Week 0: (SD); for Mean Change in adiponectin from baseline (Week 0) to Week 24: LOCF; for Mean Adiponectin, Week 0: baseline, type 2 diabetes subjects. The data set is classed as in vivo, human. The protocol:
A randomized, double-blind, placebo-controlled, 24-week study was conducted in which adiponectin levels were measured. […] 367 subjects with type 2 diabetes (TD2)—a disease in which patient adiponectin levels are reduced—were randomly assigned to receive either 0.5, 1, 2 or 3 milligrams (“mg”) of INT131 besylate, 45 mg of pioglitazone or placebo daily for 24 weeks. To measure adiponectin levels blood was drawn at Weeks 0, 2, 6, 12 and 24. At baseline (Week 0) mean adiponectin levels were 1.94 micrograms per milliliter (“µg/mL”). The mean adiponectin levels at baseline and Week 24, and the mean change in adiponectin levels from baseline (Week 0) to Week 24 are disclosed in Table 1, below. The standard deviation for samples tested in each group is listed in (parenthesis). Mean baseline adiponectin values were similar for the treatment groups.

Data set [2] concerns HbA1c. Put plainly: 24-week randomized, double-blind, placebo-controlled study in type 2 diabetes: HbA1c levels. The data set is classed as in vivo, human. The following applies: 24 weeks.
The subject of data set [3] is adiponectin. Put plainly: 14-day study of serum adiponectin levels in healthy subjects. It counts as in vivo, human. On the procedure:
A study was conducted to determine the effect of INT131 on serum adiponectin levels. Thirty healthy subjects were randomly selected to receive either placebo, 0.1 mg INT131, 1 mg INT131 or 4 mg INT131 daily for 14 days. To measure adiponectin levels blood was drawn at Days 1, 4, 8 and 14.

The nature of data set [4]: RRMS study: monthly contrast MRI, cumulative CE lesions and new/enlarged T2 lesions. The data set is classed as in vivo, human. As to conditions: for Reduction of CE lesion burden vs. placebo: 6 months; for Cumulative CE lesions over 6 months: complete case analysis. On the procedure: (§1) 227 treatment-naive adult subjects (mean age 31 [range 18-50]; 65% female) were randomized into one of three arms: oral CHS-131 at 3 mg (n=76); oral CHS-131 at 1 mg (n=76); placebo (n=75), at 21 sites in Russia. 97% completed Part 1. Inclusion criteria: Relapsing Remitting Multiple Sclerosis (RRMS) for ≤3 years, ≥1 gadolinium-positive lesion within 1-year of enrollment, and an EDSS ≤ 6 at screening. The patients underwent monthly MRI examinations with contrast to identify new inflammatory lesions. All MRIs were read blinded at the Buffalo Neuroimaging Center (Buffalo, NY). In addition to CE lesions the images were scored for cumulative new/enlarged T2 lesions, and serial cortical and whole brain volumetric analysis.

Data set [5] is described as follows: RRMS study: serial cortical and whole brain volumetric MRI analysis. It counts as in vivo, human. As to conditions: 3 mg daily, 6 months. On the procedure:
as §1

Data set [6] deals with HbA1c. As to conditions: DePaoli et al. Diabetes Care 2014; cited from earlier work.
The conditions of data set [7]: subjects taking INT131 vs those taking pioglitazone; DePaoli et al. 2014; cited from earlier work.
The conditions of data set [8]: in vivo; cited from earlier work.

Several values for one entry are separate records, joined by “and”; a condition that tells them apart may be missing. Equal entries are not always repeated. Entries after “also recorded” stand apart in the source; their conditions may differ.

Take `CCc1ccc(CCOc2ccc(CC3SC(=O)NC3=O)cc2)nc1` (centres unmarked) [pioglitazone, reference compound]: the “Mean Adiponectin, Week 24” value in the data set on adiponectin [1] (45 mg pioglitazone daily for 24 weeks) was 5.28 (3.222) µg/mL. Also, the “Mean Change in adiponectin from baseline (Week 0) to Week 24” value with adiponectin [1] (45 mg pioglitazone daily) is reported as 2.96 µg/mL; with adiponectin [1] (45 mg pioglitazone daily, listed as Pioglitazone), 2.96 (2.618) µg/mL. Besides, in the data set with adiponectin [1] (45 mg pioglitazone group), the “Mean Adiponectin, Week 0” value was 2.32 (2.185) µg/mL.
As for `O=S(=O)(Nc1cc(Cl)c(Oc2cnc3ccccc3c2)c(Cl)c1)c1ccc(Cl)cc1Cl` [INT131], the “Mean Adiponectin, Week 24” value with adiponectin [1] (0.5 mg INT131 daily for 24 weeks) is 2.28 (1.540) µg/mL; in the data set on adiponectin [1] (1 mg INT131 daily for 24 weeks), 3.15 (2.533) µg/mL; in the data set with adiponectin [1] (2 mg INT131 daily for 24 weeks), 5.14 (3.650) µg/mL; in the data set on adiponectin [1] (3 mg INT131 daily for 24 weeks), 5.83 (4.826) µg/mL. In addition, the “Mean Change in adiponectin from baseline (Week 0) to Week 24” value in the data set on adiponectin [1] (0.5 mg INT131 daily) is 0.56 µg/mL and 0.56 (0.906) µg/mL; in the data set on adiponectin [1] (1 mg INT131 daily), 1.28 µg/mL and 1.28 (1.882) µg/mL; in the data set on adiponectin [1] (2 mg INT131 daily), 3.27 µg/mL and 3.27 (3.002) µg/mL; in the data set with adiponectin [1] (3 mg INT131 daily), 3.83 µg/mL and 3.83 (4.313) µg/mL. The “Mean Adiponectin, Week 0” value in the data set on adiponectin [1] (0.5 mg INT131 group) is given as 1.73 (1.190) µg/mL; in the data set with adiponectin [1] (1 mg INT131 group), 1.87 (1.217) µg/mL; in the data set with adiponectin [1] (2 mg INT131 group) it was 1.87 (1.098) µg/mL; with adiponectin [1] (3 mg INT131 group), 2.00 (1.215) µg/mL. Moreover, in the data set with adiponectin [1] (0.5 mg, 1 mg and 3 mg doses of INT131, p≤0.0408), the “Adiponectin levels, treatment comparison with pioglitazone 45 mg” value is given as “statistically significant”. In the data set with adiponectin [1] (1 mg, 2 mg and 3 mg doses of INT131, p≤0.0109), the “Adiponectin levels, treatment comparison with placebo” value is given as “statistically significant increase”. Moreover, in the data set on HbA1c [2] (1, 2 and 3 mg doses of INT131 daily), the “Reduction of HbA1c levels as compared to placebo” value was “statistically significant reduction”. In addition, the “Reduction of HbA1c levels compared with 45 mg of pioglitazone” value with HbA1c [2] (2 and 3 mg doses of INT131 daily) is on record as “at least as well as 45 mg of pioglitazone”. For the same compound, the “Change in serum adiponectin levels, Day 1 to Day 14 and over placebo” value in the data set with adiponectin [3] (0.1 mg INT131 daily for 14 days) is “no significant change”. Also, the “Change in serum adiponectin levels over placebo and from Day 1 to Day 14” value with adiponectin [3] (1 mg or 4 mg INT131 daily for 14 days) is listed as “significant change”. Besides, the “Cumulative CE lesions over 6 months, LSMean” value in data set [4] (1 mg oral) was determined as 5.15; in data set [4] (3 mg daily oral) it was 3.10. Also, the “Reduction of CE lesion burden vs. placebo” value in data set [4] (1 mg oral, p=ns) came out at 21%; in data set [4] (3 mg daily oral, p=0.003) it was 52%. Further, the “Cumulative CE lesions over 6 months” value in data set [4] (1 mg oral) amounted to 7.6; in data set [4] (3 mg daily oral), 4.2 lesions. The “Reduction of new/enlarged T2 lesions compared to placebo” value is given as 14% in data set [4] (1 mg, p=ns) and 30% in data set [4] (3 mg, p=0.0767). Further, in data set [5], the “Less cortical volume loss compared to placebo” value was found to be 34.2%. The “Less whole brain volume loss compared to placebo” value in data set [5] was found to be 50%. Also, the “Efficacy in reducing HbA1c levels versus 45 mg of pioglitazone” value with HbA1c [6] is recorded as “equally efficacious”. In addition, the “Side effects versus pioglitazone” value in data set [7] was “less edema, weight gain, and hemodilution”. The “Crossing of the blood brain barrier” value in data set [8] is listed as “more readily than other PPARγ agonists; also recorded: readily crosses the blood brain barrier”.
